What was measured:
[1] = target: T1, HvExoI W434H mutant (Hordeum vulgare, UniProt Q9XEI3, W459H); assay: Relative rates of hydrolysis of poly-, oligosaccharides and aryl-glycosides; assay type: biochemical; settings: substance is the substrate
T1 sequence (Q9XEI3 26-630 W459H): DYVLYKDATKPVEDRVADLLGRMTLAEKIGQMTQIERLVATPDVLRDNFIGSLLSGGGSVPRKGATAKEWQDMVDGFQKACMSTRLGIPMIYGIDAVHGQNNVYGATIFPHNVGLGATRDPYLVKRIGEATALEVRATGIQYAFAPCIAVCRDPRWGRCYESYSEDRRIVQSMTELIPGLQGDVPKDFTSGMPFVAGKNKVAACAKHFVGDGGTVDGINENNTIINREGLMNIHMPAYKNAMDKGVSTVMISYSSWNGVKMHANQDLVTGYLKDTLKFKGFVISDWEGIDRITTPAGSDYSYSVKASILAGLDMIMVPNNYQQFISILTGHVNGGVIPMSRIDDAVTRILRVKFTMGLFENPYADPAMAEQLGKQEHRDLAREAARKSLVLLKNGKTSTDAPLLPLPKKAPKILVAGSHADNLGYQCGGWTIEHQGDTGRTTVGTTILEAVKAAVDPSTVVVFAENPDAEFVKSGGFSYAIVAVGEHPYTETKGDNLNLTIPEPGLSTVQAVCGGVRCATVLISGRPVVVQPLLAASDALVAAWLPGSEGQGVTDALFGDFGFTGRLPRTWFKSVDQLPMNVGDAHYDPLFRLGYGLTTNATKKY
Protocol: (§1) Dependency of activities of WT and mutant HvExoI on pH (McIlvaine buffers in the pH range of 3.5–8.5 at 30 °C) and temperature (100 mM sodium acetate buffer, pH 5.25, temperature range 0–80 °C, 15 min incubations) were determined using 0.2% (w/v) 4NP-Glc[21],[59]. Relative rates of hydrolysis of β-linked poly-, oligosaccharides, and aryl-glucosides were determined using near-homogenous HvExoI at 50 pmoles. […] Kinetic parameters were calculated from the analyses of Michaelis-Menten plots with Grafit 7.0.3[62] and processed by a proportional weighted fit, using nonlinear regression. The relative rates of hydrolysis, kinetic, and inhibition data were rounded to one or two decimal points (Supplementary Tables 2–4).

[2] = target: T2, WT HvExoI (Hordeum vulgare, UniProt Q9XEI3); assay: as above; assay type: biochemical; settings: substance is the substrate, HvExoI at 50 pmoles, nd = activity not detected
Protocol: as §1

[3] = target: Native HvExoI (Hordeum vulgare, UniProt Q9XEI3); assay: Inhibition by thio-analogues using the 4NP-Glc substrate; assay type: biochemical; settings: for ΔG: calculated according to ∆G = -RT ln [1/Ki]
Protocol: as §1

[4] = target: T2, WT HvExoI; assay: as above; assay type: biochemical; settings: for ΔG: Recombinant WT, calculated according to ∆G = -RT ln [1/Ki]
Protocol: as §1

[5] = tested on: Recombinant HvExoI W286Y; assay type: biochemical, Hordeum vulgare; settings: calculated according to ∆G = -RT ln [1/Ki]
Protocol: as §1

[6] = tested on: Recombinant HvExoI W434H; assay: Inhibition by thio-analogues using the 4NP-Glc substrate; assay type: biochemical, Hordeum vulgare
Protocol: as §1

[7] = tested on: Recombinant HvExoI W286F; assay: as above; assay type: biochemical, Hordeum vulgare; settings: calculated according to ∆G = -RT ln [1/Ki]
Protocol: as §1

[8] = tested on: Recombinant HvExoI W434Y; assay: as above; assay type: biochemical, Hordeum vulgare; settings: calculated according to ∆G = -RT ln [1/Ki]
Protocol: as §1

[9] = tested on: Recombinant HvExoI W434F; assay: as above; assay type: biochemical, Hordeum vulgare
Protocol: as §1

[10] = target: T3, HvExoI W286F/W434F mutant (Hordeum vulgare, UniProt Q9XEI3, W311F/W459F); assay: Relative rates of hydrolysis of poly-, oligosaccharides and aryl-glycosides; assay type: biochemical; settings: substance is the substrate, nd = activity not detected
T3 sequence (Q9XEI3 26-630 W311F/W459F): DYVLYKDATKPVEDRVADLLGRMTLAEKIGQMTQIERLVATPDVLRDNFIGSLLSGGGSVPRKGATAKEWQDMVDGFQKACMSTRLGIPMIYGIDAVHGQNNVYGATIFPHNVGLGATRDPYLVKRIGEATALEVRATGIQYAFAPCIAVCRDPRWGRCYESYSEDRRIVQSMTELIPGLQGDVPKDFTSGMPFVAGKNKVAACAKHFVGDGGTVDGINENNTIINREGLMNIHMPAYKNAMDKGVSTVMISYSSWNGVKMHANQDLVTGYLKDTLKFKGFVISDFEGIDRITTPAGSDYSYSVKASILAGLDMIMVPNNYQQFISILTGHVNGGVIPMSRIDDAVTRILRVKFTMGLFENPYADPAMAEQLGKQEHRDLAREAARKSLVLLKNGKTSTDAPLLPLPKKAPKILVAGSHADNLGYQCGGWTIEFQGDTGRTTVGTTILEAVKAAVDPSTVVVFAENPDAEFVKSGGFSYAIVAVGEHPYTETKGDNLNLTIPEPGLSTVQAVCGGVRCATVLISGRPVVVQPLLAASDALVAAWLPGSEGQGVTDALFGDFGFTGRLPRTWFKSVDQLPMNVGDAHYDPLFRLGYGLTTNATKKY
Protocol: as §1

[11] = target: HvExoI; parameters: method as in PMID 8617814; settings: transition state analogue; previous observations; cited from earlier work
[12] = calculated according to ∆G = -RT ln [1/Ki]

Chain of Native HvExoI (Q9XEI3 entry or part of it): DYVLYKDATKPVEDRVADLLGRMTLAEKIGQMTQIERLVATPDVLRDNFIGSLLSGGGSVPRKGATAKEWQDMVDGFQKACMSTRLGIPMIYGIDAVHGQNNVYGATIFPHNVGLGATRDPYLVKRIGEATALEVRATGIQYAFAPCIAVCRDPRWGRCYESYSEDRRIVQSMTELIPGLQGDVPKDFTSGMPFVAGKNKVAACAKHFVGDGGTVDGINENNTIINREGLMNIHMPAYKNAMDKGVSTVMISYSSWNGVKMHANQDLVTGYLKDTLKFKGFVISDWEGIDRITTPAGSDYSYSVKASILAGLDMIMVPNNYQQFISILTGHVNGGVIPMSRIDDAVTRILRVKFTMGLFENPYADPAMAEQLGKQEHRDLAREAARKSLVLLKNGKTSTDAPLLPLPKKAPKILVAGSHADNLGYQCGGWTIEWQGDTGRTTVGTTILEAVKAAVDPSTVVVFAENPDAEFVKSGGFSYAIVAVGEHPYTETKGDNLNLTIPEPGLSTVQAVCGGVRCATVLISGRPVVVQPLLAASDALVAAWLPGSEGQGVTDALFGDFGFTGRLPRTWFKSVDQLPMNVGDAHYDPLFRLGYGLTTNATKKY
T2 sequence (Q9XEI3 entry or part of it): as above

## O=[N+]([O-])c1ccc(O[C@@H]2O[C@H](CO)[C@@H](O[C@@H]3O[C@H](CO)[C@@H](O)[C@H](O)[C@H]3O)[C@H](O)[C@H]2O)cc1 [4NP-cellobioside]
[1]
  Activity (relative rate of hydrolysis): 0.04 ± 0.001 μmole/min per mg protein
[2]
  Activity (relative rate of hydrolysis): 0.9 ± 0.01 μmole/min per mg protein

## CO[C@@H]1O[C@H](CO)[C@@H](O)[C@H](O)[C@H]1S[C@@H]1O[C@H](CO)[C@@H](O)[C@H](O)[C@H]1O [G2SG-OMe, methyl 2-thio-β-sophoroside]
[3]
  ΔG: -3.75 kcal/mol
[4]
  ΔG: -3.32 kcal/mol

## CO[C@@H]1O[C@H](CS[C@@H]2O[C@H](CO)[C@@H](O)[C@H](O)[C@H]2O)[C@@H](O)[C@H](O)[C@H]1O [G6SG-OMe, methyl 6-thio-β-gentiobioside]
[3]; apparent inhibition constant, 4NP-Glc substrate
  Ki: 100 µM
[3]
  ΔG: -5.54 kcal/mol
[4]
  ΔG: -5.09 kcal/mol
[4]; WT HvExoI
  type of inhibition: competitive inhibition
[5]
  ΔG: -4.88 kcal/mol
[6]
  fold higher Ki constant value compared to WT: 8 fold
[6]; [12]
  ΔG: -4.3 kcal/mol
[7]
  ΔG: -5.14 kcal/mol
[8]
  ΔG: -4.88 kcal/mol
[9]
  fold higher Ki constant value compared to WT: 6 fold
[9]; [12]
  ΔG: -4.47 kcal/mol

## lichenin
[1]
  Activity (relative rate of hydrolysis): 0.03 ± 0.01 μmole/min per mg protein
[10]
  Activity (relative rate of hydrolysis): 0.03 ± 0.001 μmole/min per mg protein
[2]
  Activity (relative rate of hydrolysis): 0.8 ± 0.1 μmole/min per mg protein

## O=C1O[C@H](CO)[C@@H](O)[C@H](O)[C@H]1O [D-glucono−1,5-lactone]
[11]
  Ki: 2.1 µM

From paper PMC9508125, “The evolutionary advantage of an aromatic clamp in plant family 3 glycoside exo-hydrolases” (Nature Communications, 2022)
